Source: PubChem BioAssay (NCI)
“And” between values parts separate entries of the source, which are not always exact repeats. Equal values may be shown once.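 Grown in 96-well plates, cells were treated for 48 hours with each compound at five concentrations. Insufficient inhibition: endpoint recorded as highest concentration tested. GI50: concentration for 50% inhibition of growth. Definition used: TGI = concentration required for complete inhibition of growth.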 Numbered stars: 1 amine (or outer) side, 2 acyl side, 3 side chain; on linkers, the order of the positions; unused ones are H or OH. Bridge positions count the residues as written; N and C are the ends. Square brackets hold non-standard residues; d marks the D form. Peptide text beside a SMILES is read from it. I, II: the chains in the order shown. Actinocin(1to9) = Cc1c2oc3c(C)ccc(C(=O)[*:2])c3nc-2c(C(=O)[*:1])c(N)c1=O; NMeY = CN[CH](Cc1ccc(O)cc1)C(=O)O; Sar = CNCC(=O)O

Legend:
Experiment in all cases: NCI tumour cell line growth inhibition, 48 h
HCT-15 colon = system: HCT-15 colon
CAKI-1 renal = system: CAKI-1 renal
CCRF-CEM leukemia = system: CCRF-CEM leukemia
UO-31 renal = system: UO-31 renal
NCI-H522 lung = system: NCI-H522 lung
LOX IMVI melanoma = system: LOX IMVI melanoma
IGROV1 ovarian = system: IGROV1 ovarian
HL-60(TB) leukemia = system: HL-60(TB) leukemia
BT-549 breast = system: BT-549 breast
T-47D breast = system: T-47D breast

Row | SMILES | TGI (HCT-15 colon) [µM] | TGI (CAKI-1 renal) [µM] | TGI (CCRF-CEM leukemia) | TGI (UO-31 renal) [µM] | TGI (NCI-H522 lung) [µM] | TGI (LOX IMVI melanoma) [µM] | TGI (IGROV1 ovarian) [µM] | TGI (HL-60(TB) leukemia) [µM] | GI50 (HCT-15 colon) [µM] | GI50 (CAKI-1 renal) | GI50 (CCRF-CEM leukemia) | GI50 (UO-31 renal) [µM] | GI50 (NCI-H522 lung) [µM] | GI50 (LOX IMVI melanoma) | GI50 (IGROV1 ovarian) | GI50 (HL-60(TB) leukemia) [µM] | GI50 (BT-549 breast) [µM] | TGI (BT-549 breast) [µM] | GI50 (T-47D breast) [µM] | TGI (T-47D breast) [µM]
1 | COc1ccc2c(c1)CCc1c-2n[nH]c1-c1[nH]nc2c1CCc1cc(OC)ccc1-2 | > 100 | 92.7 | > 100 µM | > 100 | 67.4 | > 100 | > 100 | > 100 | – | – | – | – | – | – | – | – | – | – | – | –
2 | C[C@H]1C=C2C(=O)O[C@H]3CC[C@@H](C1)[C@@]23O | 14.6 | 14.8 | 6.05 µM | 32.1 | 8.15 | 10.3 | 19 | 4.55 | – | – | – | – | – | – | – | – | – | – | – | –
3 | O=C(/C=C/C12c3ccccc3C(c3ccccc31)C1C(=O)NC(=O)C12)c1ccccc1 (stereo unspecified) | 6.84 | 3.68 | 12.5 µM | 2.88 | 3.69 | 3.12 | 4.52 | 5.97 | 1.64 | 1.49 µM | 2.17 µM | 1.53 | 1.8 | 1.63 µM | 2.03 µM | 1.5 | 1.4 | 2.84 | – | –
4 | CC(=O)NN1C(=O)C(Cc2ccccc2)c2ccccc21 (stereo unspecified) | > 100 | > 100 | > 100 µM | > 100 | – | > 100 | > 100 | – | – | – | – | – | – | – | – | – | – | – | – | –
5 | COc1cc(/C=C2\CCCC3=C2N=C2SC(C)=NN2C3c2cc(OC)c(OC)c(OC)c2)cc(OC)c1OC (stereo unspecified) | – | – | – | – | – | – | – | – | – | – | – | – | – | – | – | – | > 100 | > 100 | > 100 | > 100
6 | Nc1c2ccccc2nc2c(C(=O)Nc3ccc(S(N)(=O)=O)cc3)cccc12 | > 100 | > 100 | > 100 µM | > 100 | > 100 | > 100 | > 100 | – | – | – | – | – | – | – | – | – | – | – | – | –
7 | CCCCN(CCCC)CC(C(C)=O)C(c1ccccc1)c1c(O)c2ccccc2oc1=O (stereo unspecified) | > 100 | > 100 | > 100 µM | – | > 100 | > 100 | > 100 | > 100 | – | – | – | – | – | – | – | – | – | – | – | –
8 | COc1cc(C(=O)c2cocc2C(=O)c2ccc3c(c2)OCO3)cc(OC)c1OC | 35.3 | 35.7 | > 51.6 µM | 33.9 | 1.85 | 30 | 48.5 | 2.06 | – | – | – | – | – | – | – | – | – | 0.552 | – | –
9 | COc1ccc(OC(C)C(=O)O)c2c(=O)ccccc12 (stereo unspecified) | > 100 | – | > 100 µM | > 100 | > 100 | > 100 | > 100 | > 100 | – | – | – | – | – | – | – | – | – | – | – | –
10 | CC(=O)Oc1ccc2c(c1)C(=O)c1nc(C)c(C)nc1C2=O | > 100 | > 100 | > 100 µM | > 100 | 89.6 | > 100 | > 100 | 56.4 | – | – | – | – | – | – | – | – | – | – | – | –
11 | CC1c2[nH]c3ccccc3c2CCN1O (stereo unspecified) | > 100 | > 100 | > 100 µM | > 100 | > 100 | > 100 | > 100 | > 100 | – | – | – | – | – | – | – | – | – | – | – | –
12 | C=C1C[C@@H]2C[C@@H](C)CC(O)[C@]2(CCCN)C1O (stereo partly specified) | – | > 100 | > 100 µM | > 100 | > 100 | > 100 | > 100 | > 100 | – | – | – | – | – | – | – | – | – | – | – | –
13 | c1ccc(OC2=NC3=S(S2)SC(Oc2ccccc2)=N3)cc1 | 43.3 | 34.3 | 28.9 µM | 36.3 | 36.1 | 43.4 | 44.7 | 42.5 | – | – | – | – | – | – | – | – | – | – | – | –
14 | NC(Cc1ccccc1)c1nccs1 (stereo unspecified) | > 100 | > 100 | > 100 µM | > 100 | > 100 | > 100 | > 100 | – | – | – | – | – | – | – | – | – | – | > 100 | – | –
15 | COC(=O)N[C@H]1CCc2c(Cl)c(OC)c(OC)c(OC)c2-c2ccc(SC)c(=O)cc21 | > 43.9 | 48.3 | > 82.7 µM | 51.7 | 20.3 | 18.6 | > 52.5 | < 0.0127 | < 0.01 | < 0.0208 µM | < 0.01 µM | < 0.0215 | < 0.01 | < 0.01 µM | < 0.01 µM | < 0.01 | < 0.01 | 1.52 | – | –
16 | CC(=O)[O-].N.N.N.N.[Co+3].[O-][Cl+3]([O-])([O-])[O-].[OH3+] | > 100 | – | > 100 µM | > 100 | > 100 | > 100 | > 100 | > 100 | > 100 | – | > 100 µM | 84.6 | 49.5 | > 100 µM | > 100 µM | > 100 | – | – | – | –
17 | COc1ccc([C@@H]2OC(=O)C3C2C(=O)O[C@H]3c2ccc(OC)c(OC)c2)cc1OC (stereo partly specified) | > 100 | – | > 100 µM | > 100 | > 100 | > 100 | > 100 | > 100 | – | – | – | – | – | – | – | – | – | – | – | –
18 | COc1ccc(CC2C(=O)OC(C)C(NC(=O)c3c4nc5c(C(=O)NC6C(=O)NC(C(C)C)C(=O)N7CCCC7C(=O)N(C)CC(=O)N(C)C(Cc7ccc(OC)cc7)C(=O)OC6C)ccc(C)c5oc-4c(C)c(=O)c3N)C(=O)NC(C(C)C)C(=O)N3CCCC3C(=O)N(C)CC(=O)N2C)cc1 (stereo unspecified) (I: TVP[Sar][NMeY](Me) / II: TVP[Sar][NMeY](Me); ester I:1-I:C, II:1-II:C; linker I:N-II:N via Actinocin(1to9); configuration not given here) | > 1 | 0.734 | < 0.01 µM and 0.0625 µM | – | 0.018 | – | – | 0.0515 | – | < 0.01 µM and 0.0363 µM | < 0.01 µM and 0.00103 µM | – | 0.00264 | < 0.01 µM and 0.00423 µM | < 0.01 µM and 0.00327 µM | 0.00154 | – | 0.246 | – | –
19 | N#CC1=C(N)NC(=O)NC12Nc1ccccc1N2 | > 100 | > 100 | – | – | > 100 | > 100 | > 100 | – | > 100 | > 100 µM | – | – | > 100 | > 100 µM | > 100 µM | – | > 100 | > 100 | > 100 | > 100
20 | N#Cc1cccc(C2C3=C(COC3=O)N(CCO)c3cc4c(cc32)OCO4)c1 (stereo unspecified) | > 50 | > 50 | > 50 µM | > 50 | 4.7 | > 50 | > 50 | 4.36 | 0.971 | 1.32 µM | 1.53 µM | 2.63 | 0.561 | 2.42 µM | 8.08 µM | 1.32 | 1.98 | > 50 | – | –
